What was measured:
PB1X-9B = test: Growth on peptides as amino acid source, peptide transport mutant; assay type: cell-based, Saccharomyces cerevisiae; details: PBIX-9B; 80 μM peptide in SC medium, 30° C., 72 hrs
Description: (§1) In addition, untransformed PB1X-9B, PB1X-9B transformed with plasmid pJP9 encoding the above-described yeast peptide transport gene, PB1X-2AΔ and PB1X-2A, the ptr2^+ parental strain to PB1X-2AΔ strain, were also assayed. Each strain was grown overnight in SC media plus uracil (non-transformed) or minus uracil (transformed) plus amino acids to stationary phase and harvested by centrifugation. Cells were then washed twice with sterile dH2 O and resuspended at 5×10^6 cells/ml. 5 μl of each suspension was applied as a small spot to a 2 ml volume of solid media in a 24 well plate. All peptides were suspended in sterile, deionized water and added to an equal volume of SC medium plus the appropriate amino acids and uracil when required. The medium for each assay thus consisted of SC medium plus or minus uracil supplemented with 80 μM of a specific peptide and auxotrophic requirements minus the amino acid components of the added peptide. The plates were incubated at 30° C. for 72 hrs. and then scored for growth.

PB1X-9B (pJP9) = test: Growth on peptides, mutant transformed with yeast peptide transport gene; assay type: cell-based, Saccharomyces cerevisiae
Description: as §1

PB1X-9B (pPTF4) = test: Growth on peptides, mutant transformed with plant gene ATPTR2A; assay type: cell-based, Saccharomyces cerevisiae
Description: as §1

PB1X-2A = test: Growth on peptides, parental strain; assay type: cell-based, Saccharomyces cerevisiae; details: data not shown
Description: as §1, with “Thus, the peptide transport mutant PB1X-9B and deletion strain PB1X-2AΔ transformed with plasmids pPTF4 (ATPTR2A) or pDTF1 (ATPTR2B) were grown on various peptides to assess the specificity of the plant peptide transporter. In” for “In”

ATPTR2Ap = test: Uptake of L-leucyl-L-[3H]leucine and competition, PB1X-9B[pPTF4]; details: PB1X-9B[pPTF4]; pH 5.5; dileucine and leucine at 100-fold
[1] = target: T1, yeast peptide transport system (Saccharomyces cerevisiae, UniProt P32901); test: Competition for L-leucyl-L-[3H]leucine uptake, PB1X-9B[pJP9]; assay type: cell-based; details: pH 5.5
T1 construct: The ptr2 gene encodes a 602 amino acid hydrophobic polypeptide with 12 putative hydrophobic segments; expressed in transfected cells; host or cells: S. cerevisiae peptide transport mutant PB1X-9B (ptr2-2) transformed with pJP9
T1 sequence (P32901 1-601): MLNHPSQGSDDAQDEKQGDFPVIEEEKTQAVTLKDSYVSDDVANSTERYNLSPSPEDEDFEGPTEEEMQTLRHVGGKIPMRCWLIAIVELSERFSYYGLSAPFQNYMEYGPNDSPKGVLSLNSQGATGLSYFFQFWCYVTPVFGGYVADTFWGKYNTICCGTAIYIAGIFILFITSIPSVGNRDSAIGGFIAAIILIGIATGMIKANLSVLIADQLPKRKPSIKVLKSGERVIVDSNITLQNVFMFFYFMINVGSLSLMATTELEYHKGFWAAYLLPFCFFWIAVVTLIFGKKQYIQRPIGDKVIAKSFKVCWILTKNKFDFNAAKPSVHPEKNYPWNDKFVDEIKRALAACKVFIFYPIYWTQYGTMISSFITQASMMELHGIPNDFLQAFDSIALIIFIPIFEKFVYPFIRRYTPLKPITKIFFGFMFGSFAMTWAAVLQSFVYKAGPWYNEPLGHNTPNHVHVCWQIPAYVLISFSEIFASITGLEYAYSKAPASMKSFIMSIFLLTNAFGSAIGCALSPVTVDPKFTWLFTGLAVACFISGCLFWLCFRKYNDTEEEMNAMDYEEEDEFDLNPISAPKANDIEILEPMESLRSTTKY
Description: L-leucyl-L [^3 H]leucine trifluoroacetic acid (TFA) was synthesized by standard solution phase techniques (Naider, F. et al., J. Biol. Chem. 249:9-20 (1974)). Uptake of L-leucyl-L-[H]leucine was performed as by Island, M. D. et al (J. Bacteriol. 169:2132-2136 (1987)), with the following modifications. Cells were grown to late log phase (26×10^7 cells/ml) overnight in SC with 2% glucose, 1 mg/ml allantoin plus amino acids to supplement auxotrophic markers. To induce peptide transport. 5-15 ml from this culture was added to 100 ml fresh medium such that the density was 3.0×10^6 cells/ml. This culture was allowed to grow (approx. 2 hrs.) to a density of 6.0×10^6 cells/ml and then harvested by centrifugation. The pelleted cells were washed twice with 10 ml cold dH2 O and suspended in cold 2% glucose to a final concentration of 2×10^8 cells/ml and incubated at 30° C. for 15 min. 500 μl of cells were then added to an equal volume of reaction mixture (30° C.) and incubated at 30°-C. At 20, 40, 60, 90, and 120 sec. intervals, 190 μl portions were removed, filtered over filters (pore size, 0.45 μm; GN-6; Gelman Sciences, Inc., Ann Arbor, Mich.) and washed 2 times with 5 ml cold, sterile dH2 O and once with 5 ml dH2 O at room temperatures. Filters were placed in scintillation vials with 5 ml of Budget-Solve scintillation cocktail (Research Products International Corp., Mount Prospect, Ill.) and counted (liquid scintillation counter; LS-7000; Beckman Instruments, Inc., Fullerton, Calif.). The final concentration of the components in the uptake assay was 1% glucose, 40 mM sodium citrate-potassium phosphate buffer (pH 5.5), and 1.5×105 M L-leucyl-L-[^3 H]leucine (specific activity, 10 mCi/mmole). Uptake is expressed as nanomoles per mg dry weight.

Sequence of ATPTR2Ap (as listed by the source): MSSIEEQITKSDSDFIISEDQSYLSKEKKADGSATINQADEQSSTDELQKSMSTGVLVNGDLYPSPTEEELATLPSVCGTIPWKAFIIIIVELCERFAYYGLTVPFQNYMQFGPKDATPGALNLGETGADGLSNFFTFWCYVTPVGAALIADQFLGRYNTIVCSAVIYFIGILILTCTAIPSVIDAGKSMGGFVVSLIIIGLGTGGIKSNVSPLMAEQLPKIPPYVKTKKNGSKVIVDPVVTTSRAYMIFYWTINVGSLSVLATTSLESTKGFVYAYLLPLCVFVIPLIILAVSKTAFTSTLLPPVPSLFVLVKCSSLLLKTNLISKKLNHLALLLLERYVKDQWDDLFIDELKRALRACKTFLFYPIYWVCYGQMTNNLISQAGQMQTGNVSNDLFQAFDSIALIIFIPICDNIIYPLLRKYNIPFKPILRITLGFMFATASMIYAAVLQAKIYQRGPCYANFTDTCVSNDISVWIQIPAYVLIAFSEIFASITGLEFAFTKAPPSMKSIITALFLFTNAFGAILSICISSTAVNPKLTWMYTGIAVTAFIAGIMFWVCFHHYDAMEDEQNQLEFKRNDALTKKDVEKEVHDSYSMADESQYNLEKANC

Met-Met-Leu: tripeptide (MML) was tested, and the growth on peptide (PB1X-9B) was “-”, the “growth on peptide (in words)” value (PB1X-9B (pJP9); PB1X-9B transformed with pJP9) was “showed growth on all peptides except” and the growth on peptide (PB1X-9B (pJP9); PBIX-9B (pJP9), 80 μM peptide in SC medium, 30° C., 72 hrs) was “-”. For the same substance, the growth on peptide (PB1X-9B (pPTF4); PBIX-9B (pPTF4), 80 μM peptide in SC medium, 30° C., 72 hrs) was “-”, the “growth on / utilization of peptide (in words)” value (PB1X-9B (pPTF4); plant peptide transport gene (pPTF4)) was “able to utilize” and the “utilization of peptide for growth (in words)” value (PB1X-2A) was “did not utilize”. For the same substance, the “competition for uptake of [3H]-dileucine” value (ATPTR2Ap) was “uptake competition similar to that seen for Leu-Leu” and the “competition for uptake of [3H]-dileucine” value [1] was “uptake competition similar to that seen for Leu-Leu”.
